Laboratory results taken from patent US20240158348A1, “HERBICIDAL CYCLIC AMIDES N-SUBSTITUTED WITH A HALOALKYLSULFONYLANILIDE GROUP” (FMC Corporation, priority 2021, published 2024).

Assays:
Format in all cases: in vivo
[1] = test system: blackgrass (Alopecurus myosuroides); assay: Test C preemergence, blackgrass; settings: 0 is no effect, 100 is complete control
Description: (§1) Seeds of plant species selected from blackgrass (Alopecurus myosuroides), corn (Zea mays), foxtail, giant (giant foxtail, Setaria faberi), goosegrass (Eleusine indica), kochia (Bassia scoparia), oat, wild (wild oat, Avena fatua), pigweed, palmer (palmer amaranth, Amaranthus palmeri), ragweed (common ragweed, Ambrosia artemisiifolia), ryegrass, Italian (Italian ryegrass, Lolium multiflorum), soybean (Glycine max) and wheat (Triticum aestivum) were planted into a blend of loam soil and sand and treated preemergence with a directed soil spray using test chemicals formulated in a non-phytotoxic solvent mixture which included a surfactant.
(§2) At the same time, plants selected from these crop and weed species and also galium (catchweed bedstraw, Galium aparine) and horseweed (Erigeron canadensis) were planted in pots containing the same blend of loam soil and sand and treated with postemergence applications of test chemicals formulated in the same manner. Plants ranged in height from 2 to 10 cm and were in the one- to two-leaf stage for the postemergence treatment. Treated plants and untreated controls were maintained in a greenhouse for 10 or 12 days, after which time all treated plants were compared to untreated controls and visually evaluated for injury. Plant response ratings, summarized in Table A, are based on a 0 to 100 scale where 0 is no effect and 100 is complete control. A dash (-) response means no test result.

corn (Zea mays) [2] = assay: Test C preemergence, corn; settings: 0 is no effect, 100 is complete control
Description: as §1, §2

[3] = test system: foxtail, giant (giant foxtail, Setaria faberi); assay: Test C preemergence, giant foxtail; settings: 0 is no effect, 100 is complete control
Description: as §1, §2

[4] = test system: goosegrass (Eleusine indica); assay: Test C preemergence, goosegrass; settings: 0 is no effect, 100 is complete control
Description: as §1, §2

kochia (Bassia scoparia) [5] = assay: Test C preemergence, kochia; settings: 0 is no effect, 100 is complete control
Description: as §1, §2

[6] = test system: oat, wild (wild oat, Avena fatua); assay: Test C preemergence, wild oat; settings: 0 is no effect, 100 is complete control
Description: as §1, §2

[7] = test system: pigweed, palmer (palmer amaranth, Amaranthus palmeri); assay: Test C preemergence, palmer amaranth; settings: 0 is no effect, 100 is complete control
Description: as §1, §2

[8] = test system: ragweed (common ragweed, Ambrosia artemisiifolia); assay: Test C preemergence, ragweed; settings: 0 is no effect, 100 is complete control
Description: as §1, §2

[9] = test system: ryegrass, Italian (Italian ryegrass, Lolium multiflorum); assay: Test C preemergence, Italian ryegrass; settings: 0 is no effect, 100 is complete control
Description: as §1, §2

soybean (Glycine max) [10] = assay: Test C preemergence, soybean; settings: 0 is no effect, 100 is complete control
Description: as §1, §2

[11] = test system: wheat (Triticum aestivum); assay: Test C preemergence, wheat; settings: 0 is no effect, 100 is complete control
Description: as §1, §2

[12] = test system: blackgrass (Alopecurus myosuroides); assay: Test C postemergence, blackgrass; settings: visual injury, 0 to 100 scale (0 no effect, 100 complete control)
Description: as §1, §2

corn (Zea mays) [13] = assay: Test C postemergence, corn; settings: visual injury, 0 to 100 scale (0 no effect, 100 complete control)
Description: as §1, §2

[14] = test system: foxtail, giant (giant foxtail, Setaria faberi); assay: Test C postemergence, giant foxtail; settings: visual injury, 0 to 100 scale (0 no effect, 100 complete control)
Description: as §1, §2

[15] = test system: goosegrass (Eleusine indica); assay: Test C postemergence, goosegrass; settings: visual injury, 0 to 100 scale (0 no effect, 100 complete control)
Description: as §1, §2

kochia (Bassia scoparia) [16] = assay: Test C postemergence, kochia; settings: visual injury, 0 to 100 scale (0 no effect, 100 complete control)
Description: as §1, §2

[17] = test system: oat, wild (wild oat, Avena fatua); assay: Test C postemergence, wild oat; settings: visual injury, 0 to 100 scale (0 no effect, 100 complete control)
Description: as §1, §2

[18] = test system: pigweed, palmer (palmer amaranth, Amaranthus palmeri); assay: Test C postemergence, palmer amaranth; settings: visual injury, 0 to 100 scale (0 no effect, 100 complete control)
Description: as §1, §2

[19] = test system: ragweed (common ragweed, Ambrosia artemisiifolia); assay: Test C postemergence, ragweed; settings: visual injury, 0 to 100 scale (0 no effect, 100 complete control)
Description: as §1, §2

[20] = test system: ryegrass, Italian (Italian ryegrass, Lolium multiflorum); assay: Test C postemergence, Italian ryegrass; settings: visual injury, 0 to 100 scale (0 no effect, 100 complete control)
Description: as §1, §2

soybean (Glycine max) [21] = assay: Test C postemergence, soybean; settings: visual injury, 0 to 100 scale (0 no effect, 100 complete control)
Description: as §1, §2

[22] = test system: wheat (Triticum aestivum); assay: Test C postemergence, wheat; settings: visual injury, 0 to 100 scale (0 no effect, 100 complete control)
Description: as §1, §2

[23] = test system: galium (catchweed bedstraw, Galium aparine); assay: Test C postemergence, galium; settings: visual injury, 0 to 100 scale (0 no effect, 100 complete control)
Description: as §1, §2

[24] = test system: horseweed (Erigeron canadensis); assay: Test C postemergence, horseweed; settings: visual injury, 0 to 100 scale (0 no effect, 100 complete control)
Description: as §1, §2

[25] = test system: barnyardgrass (Echinochloa crusgalli); assay: Test D flooded paddy test, barnyardgrass; set-up: key: 0 = no effect, 100 = complete control; settings: 250 g ai/ha, Flood; applied to paddy water at 2-leaf stage; visual rating after 13 days; scale 0 (no effect) to 100 (complete control)
Experimental: (§3) Plant species in the flooded paddy test selected from barnyardgrass (Echinochloa crusgalli), ducksalad (Heteranthera limosa), rice (Oryza sativa), and sedge, umbrella (small-flower umbrella sedge, Cyperus difformis) were grown to the 2-leaf stage for testing. At time of treatment, test pots were flooded to 3 cm above the soil surface, treated by application of test compounds directly to the paddy water, and then maintained at that water depth for the duration of the test. Treated plants and controls were maintained in a greenhouse for 13 days, after which time all species were compared to controls and visually evaluated. Plant response ratings, summarized in Table B, are based on a scale of 0 to 100 where 0 is no effect and 100 is complete control. A dash (-) response means no test result.

[26] = test system: ducksalad (Heteranthera limosa); assay: Test D flooded paddy test, ducksalad; set-up: key: 0 = no effect, 100 = complete control; settings: 250 g ai/ha, Flood; applied to paddy water at 2-leaf stage; visual rating after 13 days; scale 0 (no effect) to 100 (complete control)
Experimental: as §3

rice (Oryza sativa) = assay: Test D flooded paddy test, rice; set-up: key: 0 = no effect, 100 = complete control; settings: 250 g ai/ha, Flood; applied to paddy water at 2-leaf stage; visual rating after 13 days; scale 0 (no effect) to 100 (complete control)
Experimental: as §3

[27] = test system: sedge, umbrella (small-flower umbrella sedge, Cyperus difformis); assay: Test D flooded paddy test, umbrella sedge; set-up: key: 0 = no effect, 100 = complete control; settings: 250 g ai/ha, Flood; applied to paddy water at 2-leaf stage; visual rating after 13 days; scale 0 (no effect) to 100 (complete control)
Experimental: as §3

C#CC(C)OC1CCN(c2cc(NS(=O)(=O)C(F)(F)F)c(C)cc2C)C1=O (stereo not shown) [Compound 58]
80: Plant response rating (0 to 100 scale), Blackgrass ([1]; 31 g ai/ha Preemergence) | Plant response rating (0 to 100 scale), Kochia (kochia (Bassia scoparia) [5]; 31 g ai/ha Preemergence) | Plant response rating (0 to 100 scale), Ragweed ([8]; 31 g ai/ha Preemergence) | Pigweed, Palmer plant response rating ([18]; 125 g ai/ha Postemergence) | Plant response rating, Ducksalad [26]
70: Blackgrass plant response rating ([12]; 125 g ai/ha Postemergence) | Kochia plant response rating (kochia (Bassia scoparia) [16]; 31 g ai/ha Postemergence) | Ragweed plant response rating ([19]; 31 g ai/ha Postemergence) | Ryegrass, Italian plant response rating ([20]; 125 g ai/ha Postemergence) | Wheat plant response rating ([22]; 31 g ai/ha Postemergence) | Wheat plant response rating ([22]; 125 g ai/ha Postemergence)
20: Plant response rating (0 to 100 scale), Corn (corn (Zea mays) [2]; 31 g ai/ha Preemergence)
100: Plant response rating (0 to 100 scale), Blackgrass ([1]; 125 g ai/ha Preemergence) | Plant response rating (0 to 100 scale), Corn (corn (Zea mays) [2]; 125 g ai/ha Preemergence) | Plant response rating (0 to 100 scale), Foxtail, Giant ([3]; 31 g ai/ha Preemergence) | Plant response rating (0 to 100 scale), Foxtail, Giant ([3]; 125 g ai/ha Preemergence) | Plant response rating (0 to 100 scale), Goosegrass ([4]; 31 g ai/ha Preemergence) | Plant response rating (0 to 100 scale), Goosegrass ([4]; 125 g ai/ha Preemergence) | Plant response rating (0 to 100 scale), Oat, Wild ([6]; 125 g ai/ha Preemergence) | Plant response rating (0 to 100 scale), Pigweed, Palmer ([7]; 31 g ai/ha Preemergence) | Plant response rating (0 to 100 scale), Pigweed, Palmer ([7]; 125 g ai/ha Preemergence) | Plant response rating (0 to 100 scale), Ryegrass, Italian ([9]; 125 g ai/ha Preemergence) | Plant response rating (0 to 100 scale), Soybean (soybean (Glycine max) [10]; 31 g ai/ha Preemergence) | Plant response rating (0 to 100 scale), Soybean (soybean (Glycine max) [10]; 125 g ai/ha Preemergence) | Plant response rating (0 to 100 scale), Wheat ([11]; 125 g ai/ha Preemergence) | Goosegrass plant response rating ([15]; 31 g ai/ha Postemergence) | Goosegrass plant response rating ([15]; 125 g ai/ha Postemergence)
90: Plant response rating (0 to 100 scale), Kochia (kochia (Bassia scoparia) [5]; 125 g ai/ha Preemergence) | Plant response rating (0 to 100 scale), Oat, Wild ([6]; 31 g ai/ha Preemergence) | Plant response rating (0 to 100 scale), Ragweed ([8]; 125 g ai/ha Preemergence) | Plant response rating (0 to 100 scale), Ryegrass, Italian ([9]; 31 g ai/ha Preemergence) | Plant response rating (0 to 100 scale), Wheat ([11]; 31 g ai/ha Preemergence) | Corn plant response rating (corn (Zea mays) [13]; 125 g ai/ha Postemergence) | Foxtail, Giant plant response rating ([14]; 125 g ai/ha Postemergence) | Kochia plant response rating (kochia (Bassia scoparia) [16]; 125 g ai/ha Postemergence) | Oat, Wild plant response rating ([17]; 125 g ai/ha Postemergence) | Ragweed plant response rating ([19]; 125 g ai/ha Postemergence) | Soybean plant response rating (soybean (Glycine max) [21]; 125 g ai/ha Postemergence) | Galium plant response rating ([23]; 31 g ai/ha Postemergence) | Galium plant response rating ([23]; 125 g ai/ha Postemergence) | Horseweed plant response rating ([24]; 31 g ai/ha Postemergence) | Horseweed plant response rating ([24]; 125 g ai/ha Postemergence) | Plant response rating, Barnyardgrass [25]
95: Plant response rating, Sedge, Umbrella [27]
50: Blackgrass plant response rating ([12]; 31 g ai/ha Postemergence) | Pigweed, Palmer plant response rating ([18]; 31 g ai/ha Postemergence)
60: Corn plant response rating (corn (Zea mays) [13]; 31 g ai/ha Postemergence) | Foxtail, Giant plant response rating ([14]; 31 g ai/ha Postemergence) | Oat, Wild plant response rating ([17]; 31 g ai/ha Postemergence) | Ryegrass, Italian plant response rating ([20]; 31 g ai/ha Postemergence) | Soybean plant response rating (soybean (Glycine max) [21]; 31 g ai/ha Postemergence) | Plant response rating, Rice (rice (Oryza sativa))
